This passage reports Ki results from ChEMBL document CHEMBL5729431, “Benzisoxazole sulfonamide derivatives” (2022).

Each structure is given as a SMILES string.

The term Ki denotes a measure of affinity in units of concentration, obtained from inhibition or displacement. The low end stands for tighter binding, the high end for weaker binding.

Assay [1] addresses Histone acetyltransferase KAT6A (Homo sapiens, UniProt Q92794). Description: (§1) Kat6A Assay 1: A. Compound preparation 1. Prepare 10 mM stock solutions in 100% DMSO from solid material 2. Serial dilute 10 mM, 1 mM or 0.1 mM compound stocks 3-fold in 100% DMSO for 11-point dose responseB. Reagent preparation 1. Prepare 1× assay buffer containing 10 mM Tris HCL pH 8.0, 2.5 mM NaCl, 0.5 mM EDTA, 0.005% BSG and 0.02% Tween-20 2. Dilute Histone peptide (CPC Scientific) and AcCoA (Sigma) together in assay buffer to 2×. 3. Dilute KAT enzyme in assay buffer to 2×.C. Enzyme reaction 1. Final reaction conditions for each KAT assay in a 20 ul assay reaction volume: ii. KAT6A 15 nM, 1 uM AcCoA, 2 uM H3 1-21 peptide, 45-minute reaction 2. Add 0.5 ul of diluted compound to the assay plate (384-well V-bottom polypropylene plates) or 0.5 ul of DMSO for control wells. 3. Add 10 ul of 2× Histone peptide/2×AcCoA mix to the assay plate. 4. Add 10 ul of 2× enzyme to the assay plate. 5. Stop the reaction after the indicated time with the addition of 2 ul of 5% formic acid 6. Each reaction was analyzed using self-assembled monolayer desorption/ionization time-of-flight mass spectrometry (Mrksich, Milan (2008) Mass Spectrometry of Self-Assembled Monolayers: A New Tool for Molecular Surface Science ACS Nano 2008 2 (1), 7-18; SAMDI Tech, Inc. (Chicago, Ill.)). 7. […].

Assay [2] addresses Histone acetyltransferase KAT5 (Homo sapiens, UniProt Q92993). Described as §1, with “Kat5 Assay:” for “Kat6A Assay 1:”, “KAT5 25” for “ii. KAT6A 15”, “H4” for “H3”, “30-minute” for “45-minute”.
The target of assay [3] is Histone acetyltransferase KAT7 (Homo sapiens, UniProt O95251). The description is as §1, with “Kat7 Assay:” for “Kat6A Assay 1:”, “KAT7 12.5” for “ii. KAT6A 15”.
The target of assay [4] is Histone acetyltransferase KAT6B (Homo sapiens, UniProt Q8WYB5). The assay is described as §1, with “Kat6B” for “Kat6A”, “KAT6B 25” for “ii. KAT6A 15”, “60-minute” for “45-minute”.
In assay [5] the target is T1, Histone acetyltransferase KAT8 (Homo sapiens, UniProt Q9H7Z6).
T1 sequence (Q9H7Z6 whole entry): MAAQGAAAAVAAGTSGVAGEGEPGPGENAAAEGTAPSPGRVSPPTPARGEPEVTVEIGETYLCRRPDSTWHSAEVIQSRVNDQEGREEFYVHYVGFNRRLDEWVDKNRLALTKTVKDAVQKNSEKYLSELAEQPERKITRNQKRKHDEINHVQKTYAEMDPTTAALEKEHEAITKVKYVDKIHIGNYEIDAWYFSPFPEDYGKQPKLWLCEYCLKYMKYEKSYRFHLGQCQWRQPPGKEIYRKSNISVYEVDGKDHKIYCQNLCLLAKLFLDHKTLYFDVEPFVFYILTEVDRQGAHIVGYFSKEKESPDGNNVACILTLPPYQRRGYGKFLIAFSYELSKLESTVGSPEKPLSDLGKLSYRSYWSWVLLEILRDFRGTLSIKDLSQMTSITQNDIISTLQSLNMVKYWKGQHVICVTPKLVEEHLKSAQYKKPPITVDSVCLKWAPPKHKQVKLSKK
The assay is described as §1, with “Kat8 Assay: TBDA.” for “Kat6A Assay 1: A.”, “KAT8” for “ii. KAT6A”.

Chain of Histone acetyltransferase KAT5 (Q92993 whole entry): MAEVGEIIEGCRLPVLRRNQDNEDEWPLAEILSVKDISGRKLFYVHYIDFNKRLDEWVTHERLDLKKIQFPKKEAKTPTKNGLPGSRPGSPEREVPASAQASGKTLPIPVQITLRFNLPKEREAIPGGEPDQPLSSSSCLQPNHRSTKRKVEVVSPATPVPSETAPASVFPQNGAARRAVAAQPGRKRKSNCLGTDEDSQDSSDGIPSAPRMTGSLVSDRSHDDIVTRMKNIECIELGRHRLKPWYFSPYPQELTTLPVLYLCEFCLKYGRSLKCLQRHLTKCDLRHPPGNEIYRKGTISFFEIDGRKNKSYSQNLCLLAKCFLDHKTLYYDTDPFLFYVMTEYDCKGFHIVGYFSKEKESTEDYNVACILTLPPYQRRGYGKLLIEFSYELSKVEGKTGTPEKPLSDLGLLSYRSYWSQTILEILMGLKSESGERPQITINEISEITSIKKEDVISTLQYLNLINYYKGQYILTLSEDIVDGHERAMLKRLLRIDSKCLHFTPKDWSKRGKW
Chain of Histone acetyltransferase KAT7 (O95251 whole entry): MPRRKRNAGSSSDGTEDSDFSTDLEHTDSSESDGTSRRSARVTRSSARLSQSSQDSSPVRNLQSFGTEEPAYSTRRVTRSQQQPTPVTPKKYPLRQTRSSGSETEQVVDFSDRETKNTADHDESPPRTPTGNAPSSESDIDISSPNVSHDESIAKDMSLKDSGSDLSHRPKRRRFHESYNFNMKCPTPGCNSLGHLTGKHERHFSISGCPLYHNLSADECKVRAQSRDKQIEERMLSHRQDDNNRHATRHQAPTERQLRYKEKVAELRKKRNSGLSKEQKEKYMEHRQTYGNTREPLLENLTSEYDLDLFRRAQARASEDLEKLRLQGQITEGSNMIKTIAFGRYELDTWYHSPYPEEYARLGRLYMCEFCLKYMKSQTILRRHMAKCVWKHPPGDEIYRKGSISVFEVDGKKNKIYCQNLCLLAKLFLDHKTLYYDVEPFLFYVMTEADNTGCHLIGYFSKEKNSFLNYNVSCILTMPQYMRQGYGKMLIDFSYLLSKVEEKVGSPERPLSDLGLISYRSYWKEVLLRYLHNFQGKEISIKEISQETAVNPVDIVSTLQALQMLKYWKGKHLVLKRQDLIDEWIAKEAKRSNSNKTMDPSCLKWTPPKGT
Chain of Histone acetyltransferase KAT6A (Q92794 whole entry): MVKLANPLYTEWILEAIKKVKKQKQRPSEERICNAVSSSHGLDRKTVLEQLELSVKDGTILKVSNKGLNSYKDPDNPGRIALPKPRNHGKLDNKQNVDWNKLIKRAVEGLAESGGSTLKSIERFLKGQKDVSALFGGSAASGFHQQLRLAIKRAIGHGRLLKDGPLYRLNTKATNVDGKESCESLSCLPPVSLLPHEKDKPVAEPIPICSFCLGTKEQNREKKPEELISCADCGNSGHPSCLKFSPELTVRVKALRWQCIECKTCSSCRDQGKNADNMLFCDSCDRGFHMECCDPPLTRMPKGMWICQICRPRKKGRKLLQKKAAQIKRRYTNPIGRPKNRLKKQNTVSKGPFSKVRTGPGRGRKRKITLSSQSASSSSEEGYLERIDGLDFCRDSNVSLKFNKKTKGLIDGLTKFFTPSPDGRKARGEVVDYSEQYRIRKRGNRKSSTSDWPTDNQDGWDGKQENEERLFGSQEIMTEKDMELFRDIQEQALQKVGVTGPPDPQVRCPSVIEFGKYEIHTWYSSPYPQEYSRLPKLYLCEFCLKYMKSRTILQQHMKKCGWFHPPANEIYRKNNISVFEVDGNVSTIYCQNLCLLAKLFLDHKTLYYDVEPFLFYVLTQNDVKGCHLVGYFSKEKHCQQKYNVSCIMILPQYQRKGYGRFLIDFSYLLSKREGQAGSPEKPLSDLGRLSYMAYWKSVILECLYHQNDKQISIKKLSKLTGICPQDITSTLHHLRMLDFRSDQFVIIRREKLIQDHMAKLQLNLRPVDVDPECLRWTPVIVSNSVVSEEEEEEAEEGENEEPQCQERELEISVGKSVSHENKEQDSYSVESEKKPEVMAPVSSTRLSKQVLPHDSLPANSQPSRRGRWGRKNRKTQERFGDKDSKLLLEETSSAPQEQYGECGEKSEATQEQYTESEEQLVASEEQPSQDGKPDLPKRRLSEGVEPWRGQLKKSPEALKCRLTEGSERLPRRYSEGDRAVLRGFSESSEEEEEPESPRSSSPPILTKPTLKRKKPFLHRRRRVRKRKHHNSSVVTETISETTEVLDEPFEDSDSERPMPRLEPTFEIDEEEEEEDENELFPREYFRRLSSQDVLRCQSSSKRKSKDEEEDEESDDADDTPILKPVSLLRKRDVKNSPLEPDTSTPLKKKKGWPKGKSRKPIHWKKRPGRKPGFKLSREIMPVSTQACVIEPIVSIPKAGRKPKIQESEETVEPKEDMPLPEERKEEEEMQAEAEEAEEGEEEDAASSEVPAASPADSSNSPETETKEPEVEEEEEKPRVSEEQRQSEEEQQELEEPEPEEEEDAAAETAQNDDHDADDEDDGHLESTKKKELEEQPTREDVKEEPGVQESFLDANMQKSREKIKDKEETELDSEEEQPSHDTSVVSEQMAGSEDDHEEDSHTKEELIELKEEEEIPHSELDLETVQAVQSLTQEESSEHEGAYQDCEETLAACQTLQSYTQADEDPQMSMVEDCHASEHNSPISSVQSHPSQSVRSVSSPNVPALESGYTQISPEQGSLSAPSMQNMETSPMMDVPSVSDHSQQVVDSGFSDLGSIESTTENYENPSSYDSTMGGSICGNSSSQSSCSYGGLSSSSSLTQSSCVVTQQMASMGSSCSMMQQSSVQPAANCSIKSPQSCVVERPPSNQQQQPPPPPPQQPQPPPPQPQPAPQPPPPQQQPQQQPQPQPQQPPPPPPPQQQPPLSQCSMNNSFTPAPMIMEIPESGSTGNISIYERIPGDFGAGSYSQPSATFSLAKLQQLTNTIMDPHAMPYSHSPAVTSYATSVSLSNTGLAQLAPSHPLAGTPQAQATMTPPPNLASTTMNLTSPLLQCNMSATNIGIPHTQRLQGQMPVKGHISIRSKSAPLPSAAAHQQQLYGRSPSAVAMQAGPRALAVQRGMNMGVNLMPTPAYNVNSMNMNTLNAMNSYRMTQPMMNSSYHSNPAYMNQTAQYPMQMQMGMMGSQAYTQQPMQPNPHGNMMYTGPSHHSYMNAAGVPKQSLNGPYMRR

As for `COc1cc(Cn2cccn2)cc2onc(NS(=O)(=O)c3ccccc3)c12`, the inhibition constant (Ki) in assay [1] was 10.3 nM; in assay [2], 5980 nM; in assay [3] it was 900 nM; in assay [4] it was 60.8 nM; in assay [5] it was 20600 nM.
